Laboratory results: US5846562A, “Oral composition of fumagillol derivative” (Takeda Chemical Industries, Ltd., priority 1996, dated 1998)
Read-outs that look alike come from different tables or passages of the source.

Legend:
[1] = Plasma concentration of metabolite after oral compound A with or without famotidine pretreatment; format: in vivo, SD rats; conditions: famotidine-treated group, intragastric pH elevated, vs no famotidine
Method: Famotidine (Sigma) was administered subcutaneously to SD rats fasted overnight (dose; 10 mg/kg). […] Blood was serially drawn from the caudal vein to determine the plasma concentration of metabolites.

Colon 26 cancer cells [2] = assay: Lung metastasis (tumor colonies) in Colon 26 tumor-bearing mice, oral; format: in vivo, female BALB/c mice; conditions: for T/C (median number of tumor colonies metastasized to the lungs vs untreated control): oral once daily day 7 to day 20, sample solution in Miglyol 812, day 21
Method: (§1) Tumor-bearing mice were provided by transplanting 1×10^5 Colon 26 cancer cells/animal in the flank of female 10-week-old BALB/c mice (Charles River Japan). […] On day 21, the tumor mass at the transplantation site was excised and weighed, and the tumor weight ratio relative to the untreated control group (T/C) was calculated. In addition, the tumor colonies metastasized to the lungs were counted and the median value in each group was compared with that in the untreated control group (T/C).

Colon 26 cancer cells [3] = assay: Colon 26 tumor growth inhibition in tumor-bearing mice, oral; format: in vivo, female BALB/c mice; conditions: solution in Miglyol 812
Method: as §1

[4] = rat, in vivo, po, 100 mg/kg
From the text: Blood was collected from the caudal vein periodicaly to determine the plasma concentration of metabolite.

CO[C@@H]1[C@H](OC(=O)NC(=O)CCl)CC[C@]2(CO2)[C@H]1[C@@]1(C)O[C@@H]1CC=C(C)C [Compound A, 6-O-(N-chloroacetylcarbamoyl)fumagillol]
absorption [1]: marked increase in absorption
T/C (median number of tumor colonies metastasized to the lungs vs untreated control) (Colon 26 cancer cells [2]; 25 mg/kg): 71%
T/C (median number of tumor colonies metastasized to the lungs vs untreated control) (Colon 26 cancer cells [2]; 50 mg/kg): 52%
effect on tumor metastasis inhibition (Colon 26 cancer cells [2]; oral, solution in Miglyol 812): potent and dose-dependent effect
effect on tumor growth inhibition (Colon 26 cancer cells [3]): potent and dose-dependent effect
Plasma concentration of metabolite ([4]; 5 min): 15.7 ± 1.6 ng/mL
Plasma concentration of metabolite ([4]; 10 min): 17.3 ± 4.9 ng/mL
Plasma concentration of metabolite ([4]; 30 min): 5.8 ± 3.6 ng/mL
Plasma concentration of metabolite ([4]; 60 min): 0 ng/mL
